This is an account of results in publication PMC9942197, “Mechanistic Insights into the Ene-Reductase-Catalyzed Promiscuous Reduction of Oximes to Amines” (ACS Catalysis, 2023).

The target of test [1] is T1, XenA (Pseudomonas putida, UniProt Q9R9V9).
T1 construct: recombinant purified FMN ene-reductase, His-tagged (position differs from earlier reports)
Nature of the test: stopped-flow pre-steady-state kinetics, oxidative half-reaction. Conditions: oxidative half-reaction of reduced enzyme; read-out: Kd oxime. Format: biochemical. From the text: stopped-flow pre-steady-state kinetics, oxidative half-reaction on XenA

Test [2] deals with T2, OPR3 (Solanum lycopersicum, UniProt Q9FEW9).
T2 construct: recombinant purified FMN ene-reductase; construct details in supplement
Nature of the test: X-ray crystal structure. Type of test: binding. As to conditions: active site, oxidized flavin.

Test [3] deals with T1, XenA. Nature of the test: X-ray crystal structure. Format: binding. Conditions: active site, oxidized flavin.
Test [4] addresses T3, OPR3 (Solanum lycopersicum, UniProt Q9FEW9, Y370F).
T3 construct: recombinant purified FMN ene-reductase; construct details in supplement
Nature of the test: stopped-flow pre-steady-state kinetics, oxidative half-reaction. Format: biochemical. As to conditions: oxidative half-reaction of reduced enzyme; read-out: Kd oxime. The source says:
(§1) stopped-flow pre-steady-state kinetics, oxidative half-reaction on OPR3

Test [5] deals with T4, OPR3 (Solanum lycopersicum, UniProt Q9FEW9, Y190F).
T4 construct: recombinant purified FMN ene-reductase; construct details in supplement
Described as above. Type of test: biochemical. Conditions: oxidative half-reaction of reduced enzyme; read-out: Kd oxime.
Text: as §1

In test [6] the target is T2, OPR3. The description is as above. Type of test: biochemical. As to conditions: oxidative half-reaction of reduced enzyme; read-out: Kd oxime.
Text: as §1

Test [7] concerns the target T1, XenA. Nature of the test: stopped-flow pre-steady-state kinetics, reductive half-reaction. Conditions: read-out: Kd NADPH; reductive half-reaction of oxidized enzyme. Type of test: biochemical. The source says:
stopped-flow pre-steady-state kinetics, reductive half-reaction on XenA

T1 sequence (Q9R9V9 entry or part of it): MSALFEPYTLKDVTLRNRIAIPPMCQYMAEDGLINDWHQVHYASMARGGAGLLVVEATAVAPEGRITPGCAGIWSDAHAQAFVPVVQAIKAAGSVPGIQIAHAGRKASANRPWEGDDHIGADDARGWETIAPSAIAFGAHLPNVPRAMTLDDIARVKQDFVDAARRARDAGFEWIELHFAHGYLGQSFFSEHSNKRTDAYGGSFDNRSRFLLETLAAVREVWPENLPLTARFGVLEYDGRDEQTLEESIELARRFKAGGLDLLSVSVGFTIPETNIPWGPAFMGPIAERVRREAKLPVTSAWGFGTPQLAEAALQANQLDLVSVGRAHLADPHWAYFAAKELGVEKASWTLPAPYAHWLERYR
T2 sequence (Q9FEW9 whole entry): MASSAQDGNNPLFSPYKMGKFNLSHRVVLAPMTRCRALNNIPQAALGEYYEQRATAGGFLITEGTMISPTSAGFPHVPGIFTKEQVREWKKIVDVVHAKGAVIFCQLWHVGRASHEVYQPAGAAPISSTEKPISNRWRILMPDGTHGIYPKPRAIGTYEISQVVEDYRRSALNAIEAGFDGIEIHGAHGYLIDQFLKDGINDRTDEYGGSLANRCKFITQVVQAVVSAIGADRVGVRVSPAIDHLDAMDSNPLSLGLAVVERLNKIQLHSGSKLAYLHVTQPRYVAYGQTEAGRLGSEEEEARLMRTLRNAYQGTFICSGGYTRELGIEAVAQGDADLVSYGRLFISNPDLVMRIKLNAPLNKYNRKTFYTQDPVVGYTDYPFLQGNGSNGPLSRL
T3 sequence (Q9FEW9 whole entry Y370F): as the sequence (Q9FEW9 whole entry) above, with Y370F counted along it
T4 sequence (Q9FEW9 whole entry Y190F): as the sequence (Q9FEW9 whole entry) above, with Y190F counted along it

In general, Kd refers to a measure of binding affinity in units of concentration. Consider `CCOC(=O)C(=NO)C(=O)CC` [1b, oxime 1b], for which the Kd at XenA [1] was found to be 6430 ± 1570 µM. For the same compound, the X-ray crystal structure result on OPR3 [2] is given as “(c) OPR3/1b”.
Turning to `CCOC(=O)C(=NO)C(C)=O` [1a, oxime 1a], the X-ray crystal structure result on XenA [3] is “(b) XenA/1a”. In addition, the figures for the Kd on OPR3 [4], at OPR3 [5] and on OPR3 [6] were 37.4 ± 4.4 µM, 69 ± 4 µM and 79 ± 4 µM, respectively.
On to `NC(=O)C1=CN([C@@H]2O[C@H](COP(=O)(O)OP(=O)(O)OC[C@H]3O[C@@H](n4cnc5c(N)ncnc54)[C@H](OP(=O)(O)O)[C@@H]3O)[C@@H](O)[C@H]2O)C=CC1` [NADPH], for which the Kd at XenA [7] amounted to 109 ± 5.1 µM.
